{"source": "paper PMC3735939", "about": "“The low levels of eicosapentaenoic acid in rat brain phospholipids are maintained via multiple redundant mechanisms” (Journal of Lipid Research, 2013)", "key": {"[1]": {"test": "Identification of radiolabeled FAs in brain phospholipids by HPLC and LSC after 14C-EPA infusion", "type": "in vivo, rat", "settings": "for percent of total radiolabeled FAs: brain total phospholipids", "procedure": "(§1) Twenty-four hours postsurgery, a second catheter (iv catheter 24 gauge/0.75 inch, Angiocath™; Becton Dickinson) was implanted into the tail vein where rats received either vehicle or 10 mg/kg of MEP. Ten minutes post injection of vehicle or MEP, the tail vein catheter was connected to a syringe containing radiolabeled ^14C-palmitate (n = 8), ^14C-DHA (n = 6), or ^14C-EPA (n = 7) attached to a computer-controlled variable speed pump (PHD 22/2000; Harvard Apparatus, Holliston, MA). […] Each rat received a dose of 76 μCi ^14C-palmitate, 76 μCi ^14C-DHA, or 78 μCi ^14C-EPA. […] The radiotracer infusions continued until rats were euthanized. The brain was excised and cut sagittally. Both hemispheres were stored at −80°C for radioactive and biochemical analyses. Plasma was isolated from whole blood via microcentrifugation at 6,200 rpm (2,000 g) for 5 min and stored at −80°C. Total lipids from one brain hemisphere and from plasma were extracted by the method of Folch, Lees, and Sloane Stanley ([39]). Isolation of various neutral lipid and phospholipid classes from the total lipid extract was previously described by Chen, Liu, and Bazinet ([6]). FA methyl esters and radioactive acyl-CoA analysis were previously described by Chen, Liu, and Bazinet ([6])."}, "[2]": {"system": "mitochondrial FA β-oxidation", "test": "Radioactivity in brain aqueous fraction (marker of β-oxidation) after 5 min intravenous 14C-tracer infusion", "type": "in vivo, rat", "settings": "vehicle injection; 5 min iv infusion of tracer", "procedure": "as §1, with “([6]).” for “([6]). FA methyl esters and radioactive acyl-CoA analysis were previously described by Chen, Liu, and Bazinet ([6]).”"}, "[3]": {"test": "In vivo kinetics of FA incorporation and turnover in brain phospholipids (intravenous radiotracer infusion, kinetic model)", "set-up": "species or system rat", "procedure": "Twenty-four hours postsurgery, a second catheter (iv catheter 24 gauge/0.75 inch, Angiocath™; Becton Dickinson) was implanted into the tail vein where rats received either vehicle or 10 mg/kg of MEP. […] The radiotracers were infused for 5 min via the tail vein catheter at a rate of 0.223(1 + e^−19.2t) ml/min (t is infusion time in minutes) ([37]) which achieves a steady-state plasma radioactivity within 1 min ([18], [38]). […] During the 5 min infusion, blood samples were collected from the jugular vein at approximately 0, 0.25, 0.5, 0.75, 1.5, 3, 4, and 5 min while the unanesthetized rat was mobile in the infusion box with food and water. […] After 5 min, the rats were rapidly euthanized by head-focused high-energy microwave irradiation (13.5 kW for 1.6 s; Cober Electronics Inc., Stratford, CT). The radiotracer infusions continued until rats were euthanized. The brain was excised and cut sagittally. Both hemispheres were stored at −80°C for radioactive and biochemical analyses. Plasma was isolated from whole blood via microcentrifugation at 6,200 rpm (2,000 g) for 5 min and stored at −80°C.\nThe model for in vivo kinetics of brain FAs in rats has been previously described ([17], [18], [21], [23], [25], [37], [41]).\nBecause the infusion is 5 min, contributions of FA from de novo synthesis and esterified plasma FA are negligible ([18], [20], [23], [41]); thus only contributions from plasma unesterified FAs and acyl-CoA pools were considered in the calculation of λpalmitate, DHA, or EPA ."}, "[4]": {"settings": "cited from earlier work"}, "[5]": {"settings": "cited from earlier work", "remark": "listed apart in the source"}}, "note": "Where “and” joins values, the source holds several entries; their conditions need not be identical. Equal values may be shown once.", "data": [{"smiles": "CC/C=C\\C/C=C\\C/C=C\\C/C=C\\C/C=C\\C/C=C\\CCC(=O)O", "note": "[DHA, docosahexaenoic acid]", "values": [{"measurement": "radiolabeled FA composition", "setting": "[1]; ChoGpl, MEP-treated rats", "result": 4, "unit": "%"}, {"measurement": "radiolabeled FA composition", "setting": "[1]; ChoGpl, vehicle-treated rats", "result": 11, "unit": "%"}, {"measurement": "radiolabeled FA composition", "setting": "[1]; EtnGpl, MEP-treated rats", "result": 14, "unit": "%"}, {"measurement": "radiolabeled FA composition", "setting": "[1]; EtnGpl, vehicle-treated rats", "result": 29, "unit": "%"}, {"measurement": "percent of total radiolabeled FAs", "setting": "[1]; MEP-treated rats", "result": 3, "unit": "%"}, {"measurement": "percent of total radiolabeled FAs", "setting": "[1]; vehicle-treated rats", "result": 10, "unit": "%"}, {"measurement": "radioactivity of brain aqueous fraction", "setting": "[2]", "result": 17, "unit": "nCi/g brain"}, {"measurement": "FFA rate of turnover", "setting": "[3]; ChoGpl, MEP", "result": "90 ± 20", "unit": "%/day"}, {"measurement": "JFA net incorporation rate from brain acyl-CoA", "setting": "[3]; ChoGpl, MEP", "result": "1,234 ± 344 nmol/g/day"}, {"measurement": "Jin net incorporation rate from plasma unesterified FA", "setting": "[3]; ChoGpl, MEP", "result": "4.3 ± 0.38", "unit": "nmol/g/day"}, {"measurement": "FFA rate of turnover", "setting": "[3]; ChoGpl, Vehicle", "result": "150 ± 14", "unit": "%/day"}, {"measurement": "JFA net incorporation rate from brain acyl-CoA", "setting": "[3]; ChoGpl, Vehicle", "result": "2,146 ± 225 nmol/g/day"}, {"measurement": "Jin net incorporation rate from plasma unesterified FA", "setting": "[3]; ChoGpl, Vehicle", "result": "5.2 ± 0.62", "unit": "nmol/g/day"}, {"measurement": "FFA rate of turnover", "setting": "[3]; EtnGpl, MEP", "result": "37 ± 9.6", "unit": "%/day"}, {"measurement": "JFA net incorporation rate from brain acyl-CoA", "setting": "[3]; EtnGpl, MEP", "result": "2,030 ± 492 nmol/g/day"}, {"measurement": "Jin net incorporation rate from plasma unesterified FA", "setting": "[3]; EtnGpl, MEP", "result": "7.2 ± 1.2", "unit": "nmol/g/day"}, {"measurement": "FFA rate of turnover", "setting": "[3]; EtnGpl, Vehicle", "result": "55 ± 5.4", "unit": "%/day"}, {"measurement": "JFA net incorporation rate from brain acyl-CoA", "setting": "[3]; EtnGpl, Vehicle", "result": "3,233 ± 184 nmol/g/day"}, {"measurement": "Jin net incorporation rate from plasma unesterified FA", "setting": "[3]; EtnGpl, Vehicle", "result": "7.9 ± 1.4", "unit": "nmol/g/day"}, {"measurement": "FFA rate of turnover", "setting": "[3]; PtdIns, MEP", "result": "308 ± 105", "unit": "%/day"}, {"measurement": "JFA net incorporation rate from brain acyl-CoA", "setting": "[3]; PtdIns, MEP", "result": "477 ± 106", "unit": "nmol/g/day"}, {"measurement": "Jin net incorporation rate from plasma unesterified FA", "setting": "[3]; PtdIns, MEP", "result": "1.7 ± 0.3", "unit": "nmol/g/day"}, {"measurement": "FFA rate of turnover", "setting": "[3]; PtdIns, Vehicle", "result": "458 ± 156", "unit": "%/day"}, {"measurement": "JFA net incorporation rate from brain acyl-CoA", "setting": "[3]; PtdIns, Vehicle", "result": "688 ± 144", "unit": "nmol/g/day"}, {"measurement": "Jin net incorporation rate from plasma unesterified FA", "setting": "[3]; PtdIns, Vehicle", "result": "1.8 ± 0.078", "unit": "nmol/g/day"}, {"measurement": "FFA rate of turnover", "setting": "[3]; PtdSer, MEP", "result": "8.4 ± 3.1", "unit": "%/day"}, {"measurement": "JFA net incorporation rate from brain acyl-CoA", "setting": "[3]; PtdSer, MEP", "result": "198 ± 79", "unit": "nmol/g/day"}, {"measurement": "Jin net incorporation rate from plasma unesterified FA", "setting": "[3]; PtdSer, MEP", "result": "0.68 ± 0.11", "unit": "nmol/g/day"}, {"measurement": "FFA rate of turnover", "setting": "[3]; PtdSer, Vehicle", "result": "9.2 ± 2.1", "unit": "%/day"}, {"measurement": "JFA net incorporation rate from brain acyl-CoA", "setting": "[3]; PtdSer, Vehicle", "result": "237 ± 50", "unit": "nmol/g/day"}, {"measurement": "Jin net incorporation rate from plasma unesterified FA", "setting": "[3]; PtdSer, Vehicle", "result": "0.56 ± 0.053", "unit": "nmol/g/day"}, {"measurement": "FFA rate of turnover", "setting": "[3]; Total PL, MEP", "result": "51 ± 10", "unit": "%/day"}, {"measurement": "JFA net incorporation rate from brain acyl-CoA", "setting": "[3]; Total PL, MEP", "result": "4,390 ± 988 nmol/g/day"}, {"measurement": "Jin net incorporation rate from plasma unesterified FA", "setting": "[3]; Total PL, MEP", "result": "16 ± 1.2", "unit": "nmol/g/day"}, {"measurement": "FFA rate of turnover", "setting": "[3]; Total PL, Vehicle", "result": "75 %/day and 75 ± 7.7 %/day"}, {"measurement": "JFA net incorporation rate from brain acyl-CoA", "setting": "[3]; Total PL, Vehicle", "result": "7,259 ± 958 nmol/g/day"}, {"measurement": "Jin net incorporation rate from plasma unesterified FA", "setting": "[3]; Total PL, Vehicle", "result": "17 nmol/g/day and 17 ± 1.8 nmol/g/day"}, {"measurement": "Jin, percent lower than reported Jin", "setting": "[3]; rat, in vivo", "result": "89–91%"}, {"measurement": "fold difference in λ between DHA and EPA", "setting": "[3]; rat, in vivo", "result": 50, "unit": "fold"}, {"measurement": "λ dilution factor", "setting": "[3]; vehicle", "result": "0.0024 ± 0.0003"}, {"measurement": "FFA into brain total phospholipids, fold higher than EPA", "setting": "[3]; vehicle injection", "result": 4, "unit": "fold"}, {"measurement": "Jin into brain total phospholipids, fold higher than EPA", "setting": "[3]; vehicle injection", "result": 3, "unit": "fold"}, {"measurement": "t1/2, fold lower than EPA", "setting": "[3]; vehicle injection", "result": 4, "unit": "fold"}, {"measurement": "Jout net rate of loss from brain phospholipids", "setting": "[4]", "result": "58 to 257", "unit": "nmol/g/day"}, {"measurement": "loss t1/2 from brain phospholipids", "setting": "[4]", "result": 33, "unit": "days"}, {"measurement": "rate of loss from brain phospholipids", "setting": "[4]", "result": 2, "unit": "% per day"}, {"measurement": "Jin, reported", "setting": "[5]", "result": "150 to 190", "unit": "nmol/g/day"}]}]}
